ChEMBL document CHEMBL5042478, “Design, Synthesis, and Evaluation of VHL-Based EZH2 Degraders to Enhance Therapeutic Activity against Lymphoma” (J Med Chem, 2021)
Values belong to the compound of their own block, whether it stands above or below them. Active and inactive are the calls of the source. The rule behind the calls is not given here.

How the values were obtained:
[1] = target: T1, Protein cereblon/Histone-lysine N-methyltransferase EZH2 (Homo sapiens) (UniProt Q15910+Q96SW2); test: Protac activity at CRBN E3 ligase/EZH2 in human 22Rv1 cells assessed as degradation of EZH2 at 0.3 uM incubated for 48 hrs by Western blot analysis; type: cell-based
[2] = target: T1, Protein cereblon/Histone-lysine N-methyltransferase EZH2 (Homo sapiens); test: Protac activity at CRBN E3 ligase/EZH2 in human 22Rv1 cells assessed as degradation of EZH2 at 1 uM incubated for 48 hrs by Western blot analysis; type: cell-based
[3] = target: T1, Protein cereblon/Histone-lysine N-methyltransferase EZH2 (Homo sapiens); test: Protac activity at CRBN E3 ligase/EZH2 in human 22Rv1 cells assessed as degradation of EZH2 at 3 uM incubated for 48 hrs by Western blot analysis; type: cell-based
[4] = target: T1, Protein cereblon/Histone-lysine N-methyltransferase EZH2 (Homo sapiens); test: Protac activity at CRBN E3 ligase/EZH2 in human 22Rv1 cells assessed as inhibition of H3K27me3 at 0.3 uM incubated for 48 hrs by Western blot analysis; type: cell-based
[5] = target: T1, Protein cereblon/Histone-lysine N-methyltransferase EZH2 (Homo sapiens); test: Protac activity at CRBN E3 ligase/EZH2 in human 22Rv1 cells assessed as inhibition of H3K27me3 at 1 uM incubated for 48 hrs by Western blot analysis; type: cell-based
[6] = target: T1, Protein cereblon/Histone-lysine N-methyltransferase EZH2 (Homo sapiens); test: Protac activity at CRBN E3 ligase/EZH2 in human 22Rv1 cells assessed as inhibition of H3K27me3 at 3 uM incubated for 48 hrs by Western blot analysis; type: cell-based
[7] = target: T2, von Hippel-Lindau disease tumor suppressor/Histone-lysine N-methyltransferase EZH2 (Homo sapiens) (UniProt Q15910+P40337); test: Protac activity at VHL/EZH2 in human 22Rv1 cells assessed as reduction in H3K27me3 level at 1 uM incubated for 48 hrs by Western blot analysis; type: cell-based
[8] = target: T2, von Hippel-Lindau disease tumor suppressor/Histone-lysine N-methyltransferase EZH2 (Homo sapiens); test: Protac activity at VHL/EZH2 in human 22Rv1 cells assessed as reduction in EZH2 level at 1 uM incubated for 48 hrs by Western blot analysis; type: cell-based
[9] = target: T2, von Hippel-Lindau disease tumor suppressor/Histone-lysine N-methyltransferase EZH2 (Homo sapiens); test: Protac activity at VHL/EZH2 in human 22Rv1 cells assessed as reduction in EZH2 level at 2 uM preincubated with VH032 for 2 hrs followed by compound addition and measured after 24 hrs by Western blot analysis; type: cell-based; settings: time 26.0 hrs
[10] = target: T2, von Hippel-Lindau disease tumor suppressor/Histone-lysine N-methyltransferase EZH2 (Homo sapiens); test: Protac activity at VHL/EZH2 in human 22Rv1 cells assessed as EZH2 protein abundance after 24 hrs by Western blot analysis; type: cell-based; settings: dose 1-6 µM
[11] = target: von Hippel-Lindau disease tumor suppressor/Histone-lysine N-methyltransferase EZH1 (Homo sapiens) (UniProt Q92800+P40337); test: Protac activity at VHL/EZH1 in human 22Rv1 cells assessed as EZH1 protein abundance at 1 to 6 uM after 24 hrs by Western blot analysis; type: cell-based; settings: dose 1-6 µM
[12] = target: T2, von Hippel-Lindau disease tumor suppressor/Histone-lysine N-methyltransferase EZH2 (Homo sapiens); test: Protac activity at VHL/EZH2 in human 22Rv1 cells assessed as maximum degradation efficacy at 2 uM by Western blot analysis relative to control; type: cell-based
[13] = target: T3, von Hippel-Lindau disease tumor suppressor/Polycomb protein EED (Homo sapiens) (UniProt O75530+P40337); test: Protac activity at VHL/EED in human 22Rv1 cells assessed as reduction in EED level at 2 uM incubated for 24 hrs by Western blot analysis; type: cell-based
[14] = target: T4, von Hippel-Lindau disease tumor suppressor/Polycomb protein SUZ12 (Homo sapiens) (UniProt Q15022+P40337); test: Protac activity at VHL/SUZ12 in human 22Rv1 cells assessed as reduction in SUZ12 level at 2 uM incubated for 24 hrs by Western blot analysis; type: cell-based
[15] = target: T2, von Hippel-Lindau disease tumor suppressor/Histone-lysine N-methyltransferase EZH2 (Homo sapiens); test: Protac activity at VHL/EZH2 in VHL knockdown human 22Rv1 cells assessed as reduction in EZH2 level at 2 uM for 24 hrs by Western blot analysis; type: cell-based
[16] = target: T2, von Hippel-Lindau disease tumor suppressor/Histone-lysine N-methyltransferase EZH2 (Homo sapiens); test: Protac activity at VHL/EZH2 in human 22Rv1 cells assessed as increase in EZH2 ubiquitination at 2 uM for 12 hrs by immunoprecipitation based Western blot analysis; type: cell-based
SU-DHL-2 = test: Antiproliferative activity against human SUDHL2 cells assessed as reduction in cell viability at 0.01 to 10 uM measured after 5 days by MTS assay; type: functional, cell-based; settings: dose 0.01-10 µM, time 5.0 day
SUD4 = test: Antiproliferative activity against human SU-DHL-4 cells assessed as reduction in cell viability at 0.01 to 10 uM measured after 5 days by MTS assay; type: functional, cell-based; settings: dose 0.01-10 µM, time 5.0 day
SU-DHL-6 [17] = test: Antiproliferative activity against human SU-DHL-6 cells assessed as reduction in cell viability at 0.01 to 10 uM measured after 5 days by MTS assay; type: functional, cell-based; settings: dose 0.01-10 µM, time 5.0 day
[18] = target: Histone-lysine N-methyltransferase EZH2 (Homo sapiens) (UniProt Q15910); test: Induction of EZH2 degradation in human SUDHL2 cells at 0.1 to 5 uM after 24 hrs by Western blot analysis; type: cell-based; settings: dose 0.1-5 µM
SU-DHL-6 [19] = test: Induction of cell cycle arrest in human SU-DHL-6 cells assessed as accumulation of cells at sub G1 phase after 24 hrs by flow cytometry; type: functional, cell-based; settings: dose 1-5 µM
SU-DHL-6 [20] = test: Induction of apoptosis in human SU-DHL-6 cells assessed as increase in cleaved PARP level at 1 to 5 uM incubated for 48 hrs by Western blot analysis; type: functional, cell-based; settings: dose 1-5 µM
SU-DHL-6 [21] = test: Induction of apoptosis in human SU-DHL-6 cells assessed as increase in cleaved capase-3 level at 1 to 5 uM incubated for 48 hrs by Western blot analysis; type: functional, cell-based; settings: dose 1-5 µM
SU-DHL-6 [22] = test: Induction of apoptosis in human SU-DHL-6 cells at 1 to 5 uM incubated for 48 hrs by Annexin V/propidium iodide staining based flow cytometry; type: functional, cell-based; settings: dose 1-5 µM
[23] = target: T2, von Hippel-Lindau disease tumor suppressor/Histone-lysine N-methyltransferase EZH2 (Homo sapiens); test: Protac activity at VHL/EZH2 in human 22Rv1 cells assessed as reduction in H3K27me3 level after 24 hrs by Western blot analysis; type: cell-based; settings: dose 1-6 µM
[24] = target: T4, von Hippel-Lindau disease tumor suppressor/Polycomb protein SUZ12 (Homo sapiens); test: Protac activity at VHL/SUZ12 in human SUDHL2 cells assessed as reduction in SUZ12 level at 2 uM incubated for 24 hrs by Western blot analysis; type: cell-based
[25] = target: T3, von Hippel-Lindau disease tumor suppressor/Polycomb protein EED (Homo sapiens); test: Protac activity at VHL/EED in human SUDHL2 cells assessed as reduction in EED level at 2 uM incubated for 24 hrs by Western blot analysis; type: cell-based
[26] = target: T2, von Hippel-Lindau disease tumor suppressor/Histone-lysine N-methyltransferase EZH2 (Homo sapiens); test: Protac activity at VHL/EZH2 in human 22Rv1 cells assessed as EZH2 degradation at 2 uM after 2 to 4 hrs by Western blot analysis; type: cell-based; settings: time 2-4 hrs
SU-DHL-6 [27] = test: Induction of cell cycle arrest in human SU-DHL-6 cells after 24 hrs by flow cytometry; type: functional, cell-based; settings: dose 1-5 µM

T1 sequence (Q15910 whole entry, looked up): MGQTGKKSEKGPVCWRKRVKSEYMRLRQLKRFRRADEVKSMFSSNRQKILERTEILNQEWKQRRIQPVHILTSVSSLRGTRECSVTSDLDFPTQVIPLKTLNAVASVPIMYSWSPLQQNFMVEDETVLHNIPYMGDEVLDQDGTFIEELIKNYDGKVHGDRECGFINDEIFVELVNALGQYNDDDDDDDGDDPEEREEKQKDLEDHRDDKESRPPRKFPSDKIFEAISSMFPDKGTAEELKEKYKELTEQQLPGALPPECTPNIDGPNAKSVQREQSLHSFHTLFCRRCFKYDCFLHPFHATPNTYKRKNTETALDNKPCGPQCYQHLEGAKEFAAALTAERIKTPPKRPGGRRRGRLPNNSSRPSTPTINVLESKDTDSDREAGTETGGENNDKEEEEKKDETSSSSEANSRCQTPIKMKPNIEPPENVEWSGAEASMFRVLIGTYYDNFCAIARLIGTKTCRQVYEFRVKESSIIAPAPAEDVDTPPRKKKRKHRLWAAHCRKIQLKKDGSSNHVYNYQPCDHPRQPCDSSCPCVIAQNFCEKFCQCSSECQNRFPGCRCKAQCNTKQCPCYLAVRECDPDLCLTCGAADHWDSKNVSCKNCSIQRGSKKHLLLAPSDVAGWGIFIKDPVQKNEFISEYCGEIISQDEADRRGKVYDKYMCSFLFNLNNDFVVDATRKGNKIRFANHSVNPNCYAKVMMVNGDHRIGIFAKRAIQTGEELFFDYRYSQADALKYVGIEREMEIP
T1 sequence (Q96SW2 whole entry, looked up): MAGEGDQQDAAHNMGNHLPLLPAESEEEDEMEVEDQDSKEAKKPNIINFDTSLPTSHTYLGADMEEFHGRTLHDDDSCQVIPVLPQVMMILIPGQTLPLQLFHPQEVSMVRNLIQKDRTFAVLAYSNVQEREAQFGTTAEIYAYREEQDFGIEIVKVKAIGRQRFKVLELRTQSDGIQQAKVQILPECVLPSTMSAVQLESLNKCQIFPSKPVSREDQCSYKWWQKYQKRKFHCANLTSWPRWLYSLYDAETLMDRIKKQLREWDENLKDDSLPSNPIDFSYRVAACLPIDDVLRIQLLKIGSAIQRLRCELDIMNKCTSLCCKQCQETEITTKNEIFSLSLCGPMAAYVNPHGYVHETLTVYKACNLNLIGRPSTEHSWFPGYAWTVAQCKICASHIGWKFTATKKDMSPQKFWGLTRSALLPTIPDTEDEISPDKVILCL
T2 sequence (P40337 whole entry, looked up): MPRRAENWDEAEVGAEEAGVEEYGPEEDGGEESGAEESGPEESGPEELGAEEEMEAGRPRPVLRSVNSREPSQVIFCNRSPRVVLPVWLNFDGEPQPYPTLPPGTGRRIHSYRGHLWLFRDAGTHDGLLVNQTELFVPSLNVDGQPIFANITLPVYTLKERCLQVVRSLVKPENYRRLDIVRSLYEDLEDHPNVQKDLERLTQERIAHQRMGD
T2 sequence (Q15910 whole entry, looked up): as the sequence (Q15910 whole entry, looked up) above
T3 sequence (O75530 2-441 limits assumed): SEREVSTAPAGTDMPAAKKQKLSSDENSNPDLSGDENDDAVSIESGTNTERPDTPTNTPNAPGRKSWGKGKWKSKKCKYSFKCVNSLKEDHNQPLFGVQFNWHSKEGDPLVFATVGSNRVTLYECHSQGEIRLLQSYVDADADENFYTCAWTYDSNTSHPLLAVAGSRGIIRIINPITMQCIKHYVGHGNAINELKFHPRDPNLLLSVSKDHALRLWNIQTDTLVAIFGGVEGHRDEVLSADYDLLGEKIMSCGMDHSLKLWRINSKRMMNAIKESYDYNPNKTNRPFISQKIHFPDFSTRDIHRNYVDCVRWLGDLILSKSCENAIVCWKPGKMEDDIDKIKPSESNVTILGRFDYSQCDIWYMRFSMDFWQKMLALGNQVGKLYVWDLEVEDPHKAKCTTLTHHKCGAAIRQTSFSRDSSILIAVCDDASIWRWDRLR
T3 sequence (P40337 whole entry partner): as the sequence (P40337 whole entry, looked up) above
T4 sequence (P40337 whole entry, looked up): as above
T4 sequence (Q15022 whole entry, looked up): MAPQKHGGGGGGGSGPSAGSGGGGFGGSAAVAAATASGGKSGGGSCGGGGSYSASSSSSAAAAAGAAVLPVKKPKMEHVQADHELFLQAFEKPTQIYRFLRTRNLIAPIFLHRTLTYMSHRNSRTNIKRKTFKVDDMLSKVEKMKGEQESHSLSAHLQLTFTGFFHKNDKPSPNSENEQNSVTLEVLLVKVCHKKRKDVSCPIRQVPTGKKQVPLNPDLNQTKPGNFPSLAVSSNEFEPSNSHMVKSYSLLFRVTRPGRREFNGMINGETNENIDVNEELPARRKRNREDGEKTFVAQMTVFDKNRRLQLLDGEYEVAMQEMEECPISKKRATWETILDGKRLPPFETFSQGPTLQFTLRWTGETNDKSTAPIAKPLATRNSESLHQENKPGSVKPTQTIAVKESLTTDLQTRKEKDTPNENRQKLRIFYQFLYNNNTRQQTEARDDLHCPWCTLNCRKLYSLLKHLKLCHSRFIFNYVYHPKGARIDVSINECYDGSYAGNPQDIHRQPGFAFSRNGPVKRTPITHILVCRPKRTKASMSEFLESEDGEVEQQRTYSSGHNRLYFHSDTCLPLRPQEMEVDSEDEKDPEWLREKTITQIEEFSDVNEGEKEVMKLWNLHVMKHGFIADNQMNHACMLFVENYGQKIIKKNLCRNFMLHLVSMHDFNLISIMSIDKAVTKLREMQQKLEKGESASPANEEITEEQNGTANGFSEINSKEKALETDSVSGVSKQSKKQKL
Sequence of Histone-lysine N-methyltransferase EZH2 (Homo sapiens) (Q15910 whole entry, looked up): as the sequence (Q15910 whole entry, looked up) above
Sequence of von Hippel-Lindau disease tumor suppressor/Histone-lysine N-methyltransferase EZH1 (Homo sapiens) (P40337 whole entry, looked up): as the sequence (P40337 whole entry, looked up) above
Sequence of von Hippel-Lindau disease tumor suppressor/Histone-lysine N-methyltransferase EZH1 (Homo sapiens) (Q92800 whole entry, looked up): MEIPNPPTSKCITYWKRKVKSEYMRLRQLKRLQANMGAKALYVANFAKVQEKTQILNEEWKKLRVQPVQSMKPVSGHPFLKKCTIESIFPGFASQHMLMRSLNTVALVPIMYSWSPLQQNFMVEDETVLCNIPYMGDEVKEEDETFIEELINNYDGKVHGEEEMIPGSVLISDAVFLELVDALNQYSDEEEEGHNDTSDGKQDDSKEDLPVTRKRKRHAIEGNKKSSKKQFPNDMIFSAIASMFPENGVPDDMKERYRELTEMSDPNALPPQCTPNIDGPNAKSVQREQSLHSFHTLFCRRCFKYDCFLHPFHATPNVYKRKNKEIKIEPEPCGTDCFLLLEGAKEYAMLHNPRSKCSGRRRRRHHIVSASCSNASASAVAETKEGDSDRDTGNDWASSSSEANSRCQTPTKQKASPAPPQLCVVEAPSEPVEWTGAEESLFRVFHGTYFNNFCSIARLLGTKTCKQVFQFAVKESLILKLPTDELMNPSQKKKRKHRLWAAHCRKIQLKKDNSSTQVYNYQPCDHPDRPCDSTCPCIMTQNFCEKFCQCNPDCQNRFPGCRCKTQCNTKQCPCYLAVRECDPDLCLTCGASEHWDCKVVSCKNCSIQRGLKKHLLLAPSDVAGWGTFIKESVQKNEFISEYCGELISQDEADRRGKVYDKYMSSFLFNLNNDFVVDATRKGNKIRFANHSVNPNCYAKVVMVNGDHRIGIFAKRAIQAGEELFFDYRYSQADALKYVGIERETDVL

Structure (SMILES): CCN(c1cc(-c2ccc(C(=O)NCCOCCOCC(=O)N[C@H](C(=O)N3C[C@H](O)C[C@H]3C(=O)NCc3ccc(-c4scnc4C)cc3)C(C)(C)C)cc2)cc(C(=O)NCc2c(C)cc(C)[nH]c2=O)c1C)C1CCOCC1
Activity [7]: Active

Structure (SMILES): CCN(c1cc(-c2ccc(C(=O)NCCOCCOCCOCC(=O)N[C@H](C(=O)N3C[C@H](O)C[C@H]3C(=O)NCc3ccc(-c4scnc4C)cc3)C(C)(C)C)cc2)cc(C(=O)NCc2c(C)cc(C)[nH]c2=O)c1C)C1CCOCC1
Activity [7]: inactive | Activity [8]: inactive

Structure (SMILES): CCN(c1cc(-c2ccc(OCCOCCOCC(=O)N[C@H](C(=O)N3C[C@H](O)C[C@H]3C(=O)NCc3ccc(-c4scnc4C)cc3)C(C)(C)C)cc2)cc(C(=O)NCc2c(C)cc(C)[nH]c2=O)c1C)C1CCOCC1
Activity [9]: inactive | Activity [7]: Active | Activity [10]: Dose-Dependent Effect | Activity [11]: inactive | Emax [12]: 80% | Activity [13]: Active | Activity [14]: Active | Activity [15]: inactive | Activity [16]: Active | Activity (SU-DHL-2): Active | Activity (SUD4): Active | Activity (SU-DHL-6 [17]): Active | Activity [18]: Active | Activity (SU-DHL-6 [19]): Dose-Dependent Effect | Activity (SU-DHL-6 [20]): Active | Activity (SU-DHL-6 [21]): Active | Activity (SU-DHL-6 [22]): Dose-Dependent Effect | Activity [23]: Dose-Dependent Effect | Activity [24]: Active | Activity [25]: Active | Activity [26]: Active | Activity (SU-DHL-6 [27]): Dose-Dependent Effect | Activity [8]: Active

Now from value to compound:

Activity [1]: inactive | Activity [2]: inactive | Activity [3]: inactive | Activity [4]: Active | Activity [5]: Active | Activity [6]: Active
Structure (SMILES): CCN(c1cc(-c2ccc(C(=O)NCCCCCCNC(=O)COc3cccc4c3C(=O)N(C3CCC(=O)NC3=O)C4=O)cc2)cc(C(=O)NCc2c(C)cc(C)[nH]c2=O)c1C)C1CCOCC1 (centres undefined)

Activity [1]: inactive | Activity [2]: inactive | Activity [3]: inactive | Activity [4]: Active | Activity [5]: Active | Activity [6]: Active
Structure (SMILES): CCN(c1cc(-c2ccc(C(=O)NCCOCCNc3cccc4c3C(=O)N(C3CCC(=O)NC3=O)C4=O)cc2)cc(C(=O)NCc2c(C)cc(C)[nH]c2=O)c1C)C1CCOCC1 (centres undefined)

Activity [1]: inactive | Activity [2]: inactive | Activity [3]: inactive | Activity [4]: inactive | Activity [5]: inactive | Activity [6]: Active
Structure (SMILES): CCN(c1cc(-c2ccc(C(=O)NCCCCCCCCNC(=O)COc3cccc4c3C(=O)N(C3CCC(=O)NC3=O)C4=O)cc2)cc(C(=O)NCc2c(C)cc(C)[nH]c2=O)c1C)C1CCOCC1 (centres undefined)
